In patent US20190345191A1, “CYCLIC DINUCLEOTIDE ANALOGS FOR TREATING CONDITIONS ASSOCIATED WITH STING (STIMULATOR OF INTERFERON GENES) ACTIVITY” (Innate Tumor Immunity, Inc., priority 2016, published 2019):

System: STING pathway
Assay: STING pathway activation in THP1-Dual cells, NFκB pathway SEAP reporter
Assay type: cell-based
Conditions: Homo sapiens, NFκB pathway reporter (secreted embryonic alkaline phosphatase, QUANTI-Blue, 620 nm), 24-hour or 48-hour assay duration not specified
Experimental: STING pathway activation by the compounds described herein was measured using THP1-Dual™ cells. These cells are THP1 monocytes that have been modified to be reporters for the NFκB pathway (by inducing secreted embryonic alkaline phosphatase (SEAP) expression) and the IRF pathway (by inducing secreted luciferase (LUCIA)). Both of these pathways are activated by STING agonists in these cells.
THP1 Dualtm cells (obtained from Invivogen) are maintained in a cell growth medium that includes Roswell Park Memorial Institute medium (RPMI), 10% fetal calf serum (FCS), 100 U/ml Pen/Strep, 2 mM L-glut, 10 mM Hepes, and 1 mM sodium pyruvate. Prior to the assay, the cells were transferred to an assay medium that includes RPMI, 5% FCS, 100 U/ml Pen/Strep, 2 mM L-glut, 10 mM Hepes, and 1 mM sodium pyruvate. Cells were then counted and evaluated for viability by trypan blue exclusion assay.
The compounds of the present invention can be assayed using, for example, the following procedure. Compounds were dissolved in water or DMSO depending, for example, on their solubility in water or DMSO. […]
To carry out the secreted embryonic alkaline phosphatase reporter, 10 μL of cell supernatant was mixed with 90 μL of QUANTI-Blue in a flat-bottom 384 well plate. […] SEAP activity was measured using a spectrophotometer set at 620 nm. […] Luminescence of the wells was then measured.

| SMILES | IC50 [µM] |
| --- | --- |
| Nc1ncnc2c1ncn2[C@@H]1O[C@@H]2CNC(=O)N[C@H]3[C@@H](O)[C@H](n4cnc5c(N)ncnc54)O[C@@H]3CNC(=O)N[C@H]2[C@H]1O [Compound 31, (2R,3R,3aS,7aR,9R,10R,10aS,14aR)-2,9-bis(6-amino-9H-purin-9-yl)-3,10-dihydroxydodecahydrodifuro[3,2-d:3′,2′-j][1,3,7,9]tetraazacyclododecine-5, 12(4H,6H)-dione] | 22.2 |
| Nc1ncnc2c1ncn2[C@@H]1O[C@@H]2CNC(=S)N[C@H]3[C@@H](O)[C@H](n4cnc5c(N)ncnc54)O[C@@H]3CNC(=S)N[C@H]2[C@H]1O [Compound 30, (2R,3R,3aS,7aR,9R,10R,10aS,14aR)-2,9-bis(6-amino-9H-purin-9-yl)-3,10-dihydroxydodecahydrodifuro[3,2-d:3′,2′-j][,3,7,9]tetraazacyclododecine-5,12(4H,6H)-dithione] | 25.4 |
